# Where “and” joins values, the source holds several entries; their conditions need not be identical. Equal entries are not always repeated. Marks after values point to notes of the source that are not given here.
# Tests used:
# [1] = test system: Scedosporium apiospermum 1-003-056; assay: In vitro antifungal activity, filamentous fungi, NCCLS M38-A; format: cell-based; details: Scedosporium apiospermum, 1003056
# Text: (§1) The assay used for filamentous fungi (Aspergillus; Scedosporium; Fusarium) was that published by the National Committee for Clinical Laboratory Standards. 2002. Reference Method for Broth Dilution Antifungal Susceptibility Testing of Filamentous Fungi: Approved Standard. NCCLS document M38-A.Villanova, Pa., USA.
# [2] = test system: Fusarium solani 04-132-4207; assay: as above; format: cell-based; details: Fusarium solani, 041324207
# Text: as §1
# [3] = test system: Aspergillus flavus ATCC 204 304; assay: as above; format: cell-based; details: Aspergillus flavus, ATCC204
# Text: as §1
# [4] = test system: Aspergillus fumigatus ATCC 204 305; assay: as above; format: cell-based; details: Aspergillus fumigatus, ATCC204
# Text: as §1
# [5] = test system: Scedosporium prolificans 1-003-040; assay: as above; format: cell-based; details: Lomentospora prolificans, 1003040
# Text: as §1
# [6] = test system: Aspergillus terreus ATCC 03-232-378; assay: as above; format: cell-based; details: Aspergillus terreus, ATCC03
# Text: as §1
# [7] = test system: cytosolic phospholipase B (LPL/LPTA activities); assay: Radiometric assay, cytosolic LPL/LPTA activities; format: biochemical, Cryptococcus neoformans H99; details: pH 4
# Description: (§2) Fungal isolates and media. […] Isolate H99 was kindly supplied by Dr. Gary Cox (Duke University Medical Center, Durham, N.C., USA), and subcultured onto Sabouraud dextrose agar (SDA) at 30° C.
# (§3) Cellular disruption to prepare membrane and cytosolic fractions. The cell pellet from the preparation of the supernatant, above, was also frozen at −70° C. After washing twice with imidazole buffer, it was disrupted in the presence of a protease inhibitor cocktail (P 8215 for fungal and yeast cells; 4-(2-aminoethyl)benzenesulfonyl fluoride hydrochloride, 100 mM, 1,10-phenanthroline, 500 mM, pepstatin A, 2.2 mM, E-64, 1.4 mM; Sigma) in a MiniBeadbeater-8 Cell Disrupter (MBB-8; Daintree Scientific, Tasmania, Australia) for three cycles of 1 min, alternating with a 1 min cooling period on ice. The homogenate was centrifuged at 14,000 g for 15 min to obtain the membrane (pellet) and the cytosolic (supernatant) fractions.
# (§4) Secreted LPL and LPTA activities were measured simultaneously in a reaction mixture containing 1-[^14C]palmitoyl lyso-PC (25,000 dpm) and carrier lyso-PC (final concentration 200 μM) in assay buffer. The reaction time was […] with 1 μg of total protein and LPL activity was measured by the rate of loss of 1-[^14C]palmitoyl lyso-PC with release of radiolabelled fatty acids. LPTA activity was estimated from the rate of formation of radiolabelled PC.
# (§5) All reactions were terminated by adding 0.5 mL of chloroform:methanol (2:1 v/v). The reaction products were extracted by the method as disclosed in Bligh, E. C. and W. J. Dyer. 1959 ‘A rapid method of total lipid extraction and purification.’ Can. J. Biochem. Physiol. 37:911-917, separated by TLC and quantified as previously described. In the case of PLC activity, the TLC plates were developed in petroleum ether (BP 60-80° C.): diethyl ether: acetic acid (90:15:1, v/v/v) instead of chloroform:methanol:water (65:25:4, v/v/v).
# (§6) All experiments were carried out in duplicate or triplicate. The effects of pH on the various phospholipase activities were measured using 50 mM final concentration of imidazole-acetate buffer (pH range 3-5), MES buffer (pH range 6-8) and glycine buffer (pH 9-10). Controls for non-enzymic breakdown of substrates were included at all pH values. Cations, Triton X-100 and metal chelators were made up as stock solutions in water and diluted to the final concentration in the appropriate assay buffer.
# (§7) Preparation of inhibitors and use in assays. The following compounds were tested (for structures, see FIG. 2): compound 1, 1,12-bis(tributylphosphonium)dodecane dibromide (Fluka AG, Buchs, Switzerland); compound 2, 1,10-bis(tributylammonium)-decane dibromide; compound 3, 1,12-bis(tributylammonium)do-decane dibromide (both synthesised in-house); compound 4, 1,10-bis(trimethylammonium)decane dibromide [“decamethonium”] (Sigma, St. Louis Mo., USA). All compounds were prepared as stock solutions of 700 μM in assay buffer containing 5 mM EDTA, which was then diluted serially with buffer to obtain solutions of 70, 7, 0.7 and 0.07 μM. In each assay, 45 μL of these solutions was used, and the final volume of 125 μL was made up of substrate, enzyme and buffer. The radiometric assay was carried out as above. Inhibition was calculated as the percent of substrates (DPPC or Lyso-PC) remaining in the case of PLB and LPL activities, or of DPPC produced, in the case of the LPTA activity. The amounts converted, or produced, in the inhibitor-free control were normalised to 100%, and the inhibition calculated against it. All assays were done in triplicate.
# (§8) Under these conditions only PLB, LPL and LPTA activities (both secreted and cell-associated) were measured. Initially, compounds deemed to be potential inhibitors were assayed at 25 and 250 μM.
# [8] = test system: membrane-associated phospholipase B (LPL/LPTA activities); assay: Radiometric assay, membrane-associated LPL/LPTA activities; format: biochemical, Cryptococcus neoformans H99; details: pH 4
# Description: as §2, §3, §4, §5, §6, §7, §8
# [9] = test system: C. neoformans strain H99 phospholipases; assay: Inhibition of C. neoformans strain H99 phospholipases (all enzymes and activities); format: biochemical, Cryptococcus neoformans H99
# Description: Radiometric assay method for phospholipases. Enzyme activities were measured as described previously in a final volume of 125 μL at 37° C. For the determination of secreted PLB activity, carrier dipalmitoyl phosphatidylcholine (DPPC, final concentration 800 μM) and 1,2-di[1-^14C] palmitoyl phosphatidylcholine (20,000 dpm) were dried under nitrogen and suspended in 125 mM imidazole acetate buffer (assay buffer, pH 4.0) by sonication using a Branson 450 sonifier. The reaction time was 22 min, using 1 μg total protein and PLB activity was determined by the rate of decrease of the radiolabelled PC substrate, with appearance of the label in free fatty acid. […] These activities were measured by the appearance of radiolabel from PC in Lyso PC, diacylglycerol and phosphatidic acid, respectively.
# Secreted LPL and LPTA activities were measured simultaneously in a reaction mixture containing 1-[^14C]palmitoyl lyso-PC (25,000 dpm) and carrier lyso-PC (final concentration 200 μM) in assay buffer. The reaction time was […] with 1 μg of total protein and LPL activity was measured by the rate of loss of 1-[^14C]palmitoyl lyso-PC with release of radiolabelled fatty acids. […]
# All reactions were terminated by adding 0.5 mL of chloroform:methanol (2:1 v/v). […] 37:911-917, separated by TLC and quantified as previously described. […]
smiles,measurement,setting,value
"CCCC[N+](CCCC)(CCCC)CCCCCCCCCCCC[N+](CCCC)(CCCC)CCCC [1,12-Bis-(tributylammonium)dodecane dichloride]",MIC,[1],1.7 µg/mL and 2.8 µM
same,MIC,[2],3.3 µg/mL and 5.5 µM
same,MIC,[3],13.4 µg/mL and 22 µM
same,MIC,[4],6.7 µg/mL and 11 µM
same,MIC,[5],3.3 µg/mL and 5.5 µM
same,MIC,[6],3.3 µg/mL and 5.5 µM
"CCCC[P+](CCCC)(CCCC)CCCCCCCCCCCC[P+](CCCC)(CCCC)CCCC [Compound 1, 1,12-bis(tributylphosphonium)dodecane dibromide]","% Inhibition LPL, Cytosolic Enzyme",[7]; 2.5 μM,0%
same,"% Inhibition LPTA, Cytosolic Enzyme",[7]; 2.5 μM,0%
same,"% Inhibition LPL, Cytosolic Enzyme",[7]; 25 μM,0%
same,"% Inhibition LPTA, Cytosolic Enzyme",[7]; 25 μM,0%
same,"% Inhibition LPL, Cytosolic Enzyme",[7]; 250 μM,12.7* %
same,"% Inhibition LPTA, Cytosolic Enzyme",[7]; 250 μM,0%
same,"% Inhibition LPL, Membrane-bound Enzyme",[8]; 2.5 μM,0%
same,"% Inhibition LPTA, Membrane-bound Enzyme",[8]; 2.5 μM,0%
same,"% Inhibition LPL, Membrane-bound Enzyme",[8]; 25 μM,0%
same,"% Inhibition LPTA, Membrane-bound Enzyme",[8]; 25 μM,0%
same,"% Inhibition LPL, Membrane-bound Enzyme",[8]; 250 μM,0%
same,"% Inhibition LPTA, Membrane-bound Enzyme",[8]; 250 μM,0%
"CCCC[N+](CCCC)(CCCC)CCCCCCCCCCCC[N+](CCCC)(CCCC)CCCC [Compound 3, 1,12-bis(tributylammonium)do-decane dibromide]","enzyme (phospholipase) inhibition, in words",[9],inhibits

# From patent US7947854B2, “Bis-cationic compounds and use thereof” (The University of Sydney, priority 2003, dated 2011)
